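Five compound concentrations were applied to cells in 96-well plates for 48 hours; endpoints were derived by simple linear interpolation of the resulting dose-response curve. At the GI50, growth is halved. TGI: total growth inhibition.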
How the values were obtained:
Assay in all cases: NCI tumour cell line growth inhibition, 48 h
BT-549 breast = tested on: BT-549 breast
CAKI-1 renal = tested on: CAKI-1 renal
COLO 205 colon = tested on: COLO 205 colon
MCF7 breast = tested on: MCF7 breast
OVCAR-4 ovarian = tested on: OVCAR-4 ovarian
SF-539 CNS = tested on: SF-539 CNS
SK-MEL-2 melanoma = tested on: SK-MEL-2 melanoma
SN12C renal = tested on: SN12C renal
DLD-1 colon = tested on: DLD-1 colon
XF 498 CNS = tested on: XF 498 CNS

SMILES	GI50 (BT-549 breast)	TGI (BT-549 breast)	GI50 (CAKI-1 renal)	TGI (CAKI-1 renal)	GI50 (COLO 205 colon)	TGI (COLO 205 colon)	GI50 (MCF7 breast)	TGI (MCF7 breast)	GI50 (OVCAR-4 ovarian)	TGI (OVCAR-4 ovarian)	GI50 (SF-539 CNS)	TGI (SF-539 CNS)	GI50 (SK-MEL-2 melanoma)	TGI (SK-MEL-2 melanoma)	GI50 (SN12C renal)	TGI (SN12C renal)	TGI (DLD-1 colon) [µM]	TGI (XF 498 CNS) [µM]	GI50 (DLD-1 colon) [µM]	GI50 (XF 498 CNS) [µM]
Cn1c(=O)c(Oc2ccc(F)cc2F)cc2cnc(NC(C)(C)CO)nc21	> 21.4 µM	> 25 µM	> 25 µM	> 25 µM	> 25 µM	> 25 µM	> 25 µM	> 25 µM	> 25 µM	> 25 µM	> 25 µM	> 25 µM	> 25 µM	> 25 µM	> 25 µM	> 25 µM				
COC(=O)c1ccc2c(c1)C(=O)c1c-2n(CCCCl)c(=O)c2cc([N+](=O)[O-])ccc12	44.4 µM	> 100 µM	65.6 µM	> 100 µM	> 100 µM	> 100 µM	52 µM	> 100 µM	> 100 µM	> 100 µM	83.6 µM	> 100 µM	> 100 µM	> 100 µM	> 100 µM	> 100 µM				
COc1ccc(/C(=N\NC(=O)NN)C(c2ccc(OC)cc2)C2(O)C(=O)Nc3c(Cl)cc(Cl)cc32)cc1 (stereo not drawn)						> 100 µM				> 100 µM				> 100 µM		> 100 µM	> 100	> 100		
C[C@H]1/C(=C/C(=O)OCCN(C)C)CC[C@H]2[C@H]1C(=O)C[C@H]1C(C)(C)[C@@H](O)CC[C@]21C		> 100 µM		> 100 µM		> 100 µM		> 100 µM		> 100 µM		> 100 µM		> 100 µM		> 100 µM				
COc1ccc(C#Cc2ccc(=O)oc2-c2cc(OC)c(OC)c(OC)c2)cc1O	7.37 µM	> 64.2 µM	7.6 µM	> 100 µM	37.3 µM	> 100 µM	0.666 µM	> 100 µM	20.3 µM	> 100 µM	6.27 µM	40.4 µM	6.74 µM	> 100 µM	20.7 µM	> 100 µM				
CC(=O)/C(=C/c1ccccc1)C(=O)CC(C)C	14.9 µM	28.9 µM	7.56 µM	20.6 µM	16.9 µM	35.5 µM	4.5 µM	18.5 µM	17.6 µM	41.4 µM	23.4 µM	49.4 µM	24.5 µM	60.7 µM	14.3 µM	39 µM				
O=C(CCl)NCCNc1nccc(Nc2ccc(S(=O)(=O)Nc3ccccn3)cc2)n1	2.32 µM	13.9 µM	2.31 µM	10.4 µM	3.22 µM	11.6 µM	1.78 µM	5.61 µM	3.1 µM	25.3 µM	1.85 µM	3.9 µM	2.33 µM	7.83 µM	2.85 µM	11.1 µM				
CCCCC(CCCCCC(CCCC)NCc1ccc2c(c1)OCO2)NCc1ccc2c(c1)OCO2 (stereo not drawn)	1.48 µM	3.06 µM	0.669 µM	1.76 µM	0.189 µM	0.35 µM	0.273 µM	0.744 µM	1.46 µM	2.81 µM	0.664 µM	1.48 µM	0.336 µM	0.835 µM	1.42 µM	2.96 µM				
CC/C=C\C[C@H](F)C/C=C1/C(=O)C=C[C@@H]1C/C=C\CCCC(=O)OC	1.5 µM	4.15 µM	1.87 µM	6.82 µM	1.22 µM	2.72 µM	1.02 µM	7.05 µM	3.35 µM	10.1 µM	4.26 µM	11.2 µM	4.88 µM	13 µM	1.25 µM	3.24 µM				
CCCCCCCCCCCCCCCCCc1nccn1CCOCCO	6.1 µg/mL	11.7 µg/mL	6.3 µg/mL	13.1 µg/mL	6.07 µg/mL	11.4 µg/mL	5.65 µg/mL	11.4 µg/mL	4.46 µg/mL	9.62 µg/mL	5.74 µg/mL	11.1 µg/mL	7.58 µg/mL	14 µg/mL	5.11 µg/mL	10.1 µg/mL				
C[C@@]1(C(=O)O)CCC[C@]2(C)C1CC[C@@]13C[C@@](O)(CC[C@]12O)[C@@]1(CO1)C3 (stereo partly drawn)	> 100 µM	> 100 µM	> 100 µM	> 100 µM	> 100 µM	> 100 µM	> 100 µM	> 100 µM	> 100 µM	> 100 µM	> 100 µM	> 100 µM	> 100 µM	> 100 µM	> 100 µM	> 100 µM				
O=c1oc2ccc(I)cc2c(=O)n1-c1ccc(F)cc1F	1.91 µM	4.98 µM	1.8 µM	6.6 µM	3.39 µM	13.1 µM	2.38 µM	49.1 µM	2.07 µM	8.97 µM	2.79 µM	9.51 µM	2.15 µM	5.73 µM	2.36 µM	8.91 µM				
CC(C)N1CCN(c2ccncc2S(=O)(=O)N2CCCCC2)CC1		> 100 µM		> 100 µM		> 100 µM		> 100 µM		> 100 µM		> 100 µM		> 100 µM		> 100 µM				
O=C1/C=C/[C@@H](O)[C@@H]2C[C@@H](O)C[C@H]2/C=C/CCC[C@H](CCc2cccc3ccccc23)O1	0.0609 µM	12.1 µM	0.239 µM	3.08 µM	0.0659 µM	0.152 µM	0.0753 µM	0.377 µM	0.0525 µM	3.82 µM	0.121 µM	16.3 µM	0.175 µM	0.521 µM	0.248 µM	11.5 µM				
CSC(=NC#N)S/C=C/C(=O)c1ccccc1	29.2 µM	70.4 µM	16.6 µM	37.2 µM	35.2 µM	> 100 µM	52.3 µM	> 100 µM	> 100 µM	> 100 µM	22.6 µM	49.4 µM	70.6 µM	> 100 µM	39.4 µM	> 100 µM				
O=C1CSC(=S)N1c1ccco1		50.4 µM		> 100 µM		> 100 µM		> 100 µM		> 100 µM		> 100 µM		> 100 µM		> 100 µM				
O=C(Nc1cccc2c1C(=O)c1c(NC(=O)c3ccccc3)ccc(Nc3cccc4c3C(=O)c3ccccc3C4=O)c1C2=O)c1ccccc1				> 100 µM		> 100 µM				> 100 µM		> 100 µM		> 100 µM		> 100 µM	> 100			
O=C(CC1(O)C(=O)N(Cc2ccccc2)c2ccc(Cl)cc21)c1ccc(C(=O)NCC2CCC3(CC2)OOC2(CCCCC2)OO3)cc1 (stereo not drawn)	2.42 µM	15 µM	0.418 µM	0.864 µM	0.626 µM	1.66 µM	1.81 µM	66.2 µM	2.45 µM	11.5 µM	0.191 µM	0.379 µM	1.87 µM	4.41 µM	0.797 µM	2.38 µM				

SMILES	GI50 (BT-549 breast)	TGI (BT-549 breast)	GI50 (CAKI-1 renal)	TGI (CAKI-1 renal)	GI50 (COLO 205 colon)	TGI (COLO 205 colon)	GI50 (MCF7 breast)	TGI (MCF7 breast)	GI50 (OVCAR-4 ovarian)	TGI (OVCAR-4 ovarian)	GI50 (SF-539 CNS)	TGI (SF-539 CNS)	GI50 (SK-MEL-2 melanoma)	TGI (SK-MEL-2 melanoma)	GI50 (SN12C renal)	TGI (SN12C renal)	TGI (DLD-1 colon) [µM]	TGI (XF 498 CNS) [µM]	GI50 (DLD-1 colon) [µM]	GI50 (XF 498 CNS) [µM]
BrC(Br)=C1C(=C(Br)Br)C(Br)C1Br (stereo not drawn)		6.93 µM		0.898 µM		2.59 µM		1.31 µM		6.18 µM				7.7 µM		2.31 µM	1.98			
C=C1CC2(CC(c3ccccc3Cl)OC(c3ccccc3Cl)C2)OC1=O (stereo not drawn)		4.59 µM		5.11 µM		5.51 µM		5 µM		8.56 µM		4.27 µM		6.78 µM		5.75 µM				
C=C(CN1CCN(c2ccc(C(F)(F)F)cc2)CC1)c1ccc(C(=O)Nc2ccccc2N)cc1	6.93 µM	97.8 µM	6.08 µM	44 µM	> 100 µM	> 100 µM	10.9 µM	> 100 µM	5.68 µM	> 100 µM	8.15 µM	> 100 µM	> 100 µM	> 100 µM	6.37 µM	> 100 µM				
Cc1cccc(-n2c(N)c(-c3nc4ccccc4[nH]3)sc2=S)c1				90.5 µM		51.8 µM				> 100 µM		37 µM		62.3 µM		86.9 µM	80.1			
Cc1c(-c2ccc(C3CCCCC3)cc2)nc2ccc(F)cc2c1C(=O)O	9.89 µM	> 100 µM	0.0815 µM	> 100 µM	0.185 µM	> 100 µM	0.168 µM	> 100 µM	38 µM	> 100 µM	0.0701 µM	> 70 µM	> 45.9 µM	> 100 µM	0.546 µM	> 100 µM				
O=C(Nc1ccc(Cc2ccccc2)cc1)Nc1nn(C(=O)Nc2ccc(Cc3ccccc3)cc2)c2ccccc12	> 100 µM	> 100 µM	> 100 µM	> 100 µM	> 100 µM	> 100 µM	> 100 µM	> 100 µM	> 100 µM	> 100 µM	> 100 µM	> 100 µM	> 100 µM	> 100 µM	> 100 µM	> 100 µM				
O=S(=O)([O-])c1ccc(N=Cc2ccccc2[O-])cc1.O=S(=O)([O-])c1ccc(N=Cc2ccccc2[O-])cc1.[Co+2]					> 100 µM	> 100 µM					84 µM	> 100 µM	> 100 µM	> 100 µM	> 100 µM	> 100 µM	> 100	> 100	51.1	53.5
CCCCOC(=O)c1ccc(N)cc1	77.6 µM	> 100 µM	11.4 µM	> 100 µM	32.1 µM	> 100 µM	74.6 µM	> 100 µM	> 100 µM	> 100 µM	30 µM	> 100 µM	> 100 µM	> 100 µM	> 100 µM	> 100 µM				
C=C(CO)CC(O)c1cc(OC)ccc1OC (stereo not drawn)				> 100 µM		> 100 µM				> 100 µM		> 100 µM		> 100 µM		> 100 µM		> 100		
NC(N)=NCC1CCCCCCN1 (stereo not drawn)		> 100 µM		> 100 µM		> 100 µM		> 100 µM		> 100 µM		> 100 µM		> 100 µM		> 100 µM				
COC(=O)C1=C(O)[C@H](C(=O)OC)C2(O)C(C(=O)OC)[C@H](c3ccc(OC(=O)C(C)c4ccccc4)cc3)C[C@@H]1[C@@H]2C(=O)OC (stereo partly drawn)	19.3 µM	> 50 µM	15.2 µM	> 50 µM	13.7 µM	36.3 µM	33.7 µM	> 50 µM	21.5 µM	> 50 µM	11.8 µM	34.1 µM	31 µM	> 50 µM	23.7 µM	> 50 µM				
O=C(O)[C@H](Cc1c[nH]c2ccccc12)N1C(=O)c2ccccc2C1=O		> 100 µM		> 100 µM		> 100 µM		> 100 µM		> 100 µM		> 100 µM		> 100 µM		> 100 µM				
N#CC(/C(CCC(=O)Nc1ccc(Cl)cc1)=N/NC(=O)c1cc2ccccc2cc1O)c1ccccc1 (stereo not drawn)						> 100 µM				> 100 µM				61.2 µM		> 100 µM	> 100	> 100		
O=C1/C(=C/c2ccccc2)CN(C(=O)C(Cl)Cl)C/C1=C\c1ccccc1	1.24 µM	2.69 µM	1.42 µM	2.95 µM	1.19 µM	3.01 µM	0.113 µM	0.886 µM	1.12 µM	2.44 µM	0.884 µM	2.25 µM	1.79 µM	4.07 µM	0.43 µM	1.26 µM				
COC(OC)c1cc2c(cc1C=O)OCO2				> 100 µM						> 100 µM		> 100 µM		> 100 µM		> 100 µM	> 100			
CC(=O)O[C@H]([C@H](OC(C)=O)[C@H](C)OC(C)=O)[C@@H](/C=C/[C@@H]1CC=CC(=O)O1)OC(C)=O	22.3 µM	51.3 µM	29.8 µM	83.6 µM	33.5 µM	> 100 µM	33.5 µM	> 100 µM	45.3 µM	> 100 µM	34.5 µM	92.7 µM	24 µM	74.4 µM	84.1 µM	> 100 µM				
CC(C)N(O)C(=N)c1ccccc1				> 100 µM						> 100 µM		> 100 µM		> 100 µM		> 100 µM	> 100			

— PubChem BioAssay (NCI)
